According to PubChem BioAssay AID2060625 (Molecular Pharmacology Branch, DTP, NCI, 2025):

System: 186277-243-T-J2-PDC spheroids with HUVEC/MSC, viability
Test: Anticancer human tumor 186277-243-T-J2-PDC patient-derived colon adenocarcinoma cell line growth inhibition [CLK]
Conditions: for IC50: curve of first compound; for viability, T/C: stronger effect = lower value; active = viability on the fitted dose curve at most 10% of control; inactive = the rest
Summary of the method: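 Patient-derived tumor cells grown as complex spheroids with HUVEC endothelial cells and mesenchymal stem cells, treated with drug combinations. Concentrations descend in half-log steps from near clinical Cmax, or from 10 microM if Cmax unknown.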

[1] = second compound 0.0316 µM, first compound 0.0316 µM
[2] = second compound 0.0316 µM, first compound 0.1 µM
[3] = second compound 0.0316 µM, first compound 0.316 µM
[4] = second compound 0.0316 µM, first compound 1 µM
[5] = second compound 0.0316 µM, first compound 3.16 µM
[6] = second compound 0.0316 µM, first compound 10 µM
[7] = second compound 0.1 µM, first compound 0.0316 µM
[8] = second compound 0.1 µM, first compound 0.1 µM
[9] = second compound 0.1 µM, first compound 0.316 µM
[10] = second compound 0.1 µM, first compound 1 µM
[11] = second compound 0.1 µM, first compound 3.16 µM
[12] = second compound 0.1 µM, first compound 10 µM
[13] = second compound 0.316 µM, first compound 0.0316 µM
[14] = second compound 0.316 µM, first compound 0.1 µM
[15] = second compound 0.316 µM, first compound 0.316 µM
[16] = second compound 0.316 µM, first compound 1 µM
[17] = second compound 0.316 µM, first compound 3.16 µM
[18] = second compound 0.316 µM, first compound 10 µM
[19] = second compound 1 µM, first compound 0.0316 µM
[20] = second compound 1 µM, first compound 0.1 µM
[21] = second compound 1 µM, first compound 0.316 µM
[22] = second compound 1 µM, first compound 1 µM
[23] = second compound 1 µM, first compound 3.16 µM
[24] = second compound 1 µM, first compound 10 µM
[25] = second compound 3.16 µM, first compound 0.0316 µM
[26] = second compound 3.16 µM, first compound 0.1 µM
[27] = second compound 3.16 µM, first compound 0.316 µM
[28] = second compound 3.16 µM, first compound 1 µM
[29] = second compound 3.16 µM, first compound 3.16 µM
[30] = second compound 3.16 µM, first compound 10 µM
[31] = second compound 10 µM, first compound 0.0316 µM
[32] = second compound 10 µM, first compound 0.1 µM
[33] = second compound 10 µM, first compound 0.316 µM
[34] = second compound 10 µM, first compound 1 µM
[35] = second compound 10 µM, first compound 3.16 µM
[36] = second compound 10 µM, first compound 10 µM
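Also: compound exposure lasted seven days before readout.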
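For viability, T/C in this document: 100% = DMSO vehicle control wells.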

CC(=O)O[C@H]1C(=O)[C@@]2(C)[C@H]([C@H](OC(=O)c3ccccc3)[C@]3(O)C[C@H](OC(=O)[C@H](O)[C@@H](NC(=O)c4ccccc4)c4ccccc4)C(C)=C1C3(C)C)[C@]1(OC(C)=O)CO[C@@H]1C[C@@H]2O + CNC(=O)c1ccc(Nc2nc(OC3CCCC3)c3c(-c4ccc5nc(C)oc5c4)c[nH]c3n2)c(OC)c1
inactive: viability, T/C [1] 73.2% | viability, T/C [2] 73.2% | viability, T/C [3] 45.2% | viability, T/C [4] 26.3% | viability, T/C [5] 27.7% | viability, T/C [6] 59.1% | viability, T/C [7] 64.4% | viability, T/C [8] 85.1% | viability, T/C [9] 128% | viability, T/C [10] 142% | viability, T/C [11] 156% | viability, T/C [12] 166% | viability, T/C [13] 40.4% | viability, T/C [14] 64% | viability, T/C [15] 96% | viability, T/C [16] 105% | viability, T/C [17] 110% | viability, T/C [18] 94.6% | viability, T/C [19] 31.5% | viability, T/C [20] 44.1% | viability, T/C [21] 53.2% | viability, T/C [22] 53.3% | viability, T/C [23] 61% | viability, T/C [24] 65.5% | viability, T/C [25] 32.4% | viability, T/C [26] 44.6% | viability, T/C [27] 40.2% | viability, T/C [28] 48.4% | viability, T/C [29] 44.7% | viability, T/C [30] 50% | viability, T/C [31] 30.1% | viability, T/C [32] 36.4% | viability, T/C [33] 41% | viability, T/C [34] 39.5% | viability, T/C [35] 45.2% | viability, T/C [36] 47.6%
< 0.0316 µM: IC50 (second compound 0.316 µM) | IC50 (second compound 1 µM) | IC50 (second compound 3.16 µM) | IC50 (second compound 10 µM)
0.26 µM: IC50 (second compound 0.0316 µM)
> 10 µM: IC50 (second compound 0.1 µM)

O=c1[nH]cc(F)c(=O)[nH]1 + CN1CCN(c2cc(C(=O)Nc3cc4cc(-c5cnn(C)c5)ccc4cn3)ccn2)CC1
active: viability, T/C [19] 1.33% | viability, T/C [20] 0.66% | viability, T/C [21] 0.91% | viability, T/C [22] 1.78% | viability, T/C [23] 1.34% | viability, T/C [24] 1.32% | viability, T/C [25] 3.16% | viability, T/C [26] 0.66% | viability, T/C [27] 1.53% | viability, T/C [28] 0.93% | viability, T/C [29] 2.49% | viability, T/C [30] 0.81% | viability, T/C [31] 3.05% | viability, T/C [32] 0.66% | viability, T/C [33] 0.92% | viability, T/C [34] 1.07% | viability, T/C [35] 0.96% | viability, T/C [36] 0.38%
> 10 µM: IC50 (second compound 0.0316 µM)
< 0.0316 µM: IC50 (second compound 0.316 µM) | IC50 (second compound 1 µM) | IC50 (second compound 3.16 µM) | IC50 (second compound 10 µM)
6.16 µM: IC50 (second compound 0.1 µM)
inactive: viability, T/C [1] 86.8% | viability, T/C [2] 85.2% | viability, T/C [3] 101% | viability, T/C [4] 86.2% | viability, T/C [5] 73% | viability, T/C [6] 56.3% | viability, T/C [7] 81.4% | viability, T/C [8] 76.6% | viability, T/C [9] 87% | viability, T/C [10] 82.6% | viability, T/C [11] 62.6% | viability, T/C [12] 40.8% | viability, T/C [13] 21.7% | viability, T/C [14] 19.2% | viability, T/C [15] 22.6% | viability, T/C [16] 23.1% | viability, T/C [17] 23.5% | viability, T/C [18] 21%

C#Cc1c(F)ccc2cc(O)cc(-c3ncc4c(N5CC6CCC(C5)N6)nc(OCC56CCCN5CC(F)C6)nc4c3F)c12 (stereo unspecified) + CN1CCN(c2cc(C(=O)Nc3cc4cc(-c5cnn(C)c5)ccc4cn3)ccn2)CC1
0.188 µM: IC50 (second compound 0.1 µM)
active: viability, T/C [15] 6.4% | viability, T/C [16] 4.52% | viability, T/C [17] 4.02% | viability, T/C [18] 2.36% | viability, T/C [19] 0.29% | viability, T/C [20] 0.77% | viability, T/C [21] 0.35% | viability, T/C [22] 0.39% | viability, T/C [23] 0.43% | viability, T/C [24] 0.19% | viability, T/C [25] 1.1% | viability, T/C [26] 0.65% | viability, T/C [27] 0.64% | viability, T/C [28] 1.1% | viability, T/C [29] 1.04% | viability, T/C [30] 0.26% | viability, T/C [31] 0.72% | viability, T/C [32] 0.54% | viability, T/C [33] 0.53% | viability, T/C [34] 0.64% | viability, T/C [35] 1.33% | viability, T/C [36] 0.27%
inactive: viability, T/C [1] 110% | viability, T/C [2] 88.2% | viability, T/C [3] 76.2% | viability, T/C [4] 44% | viability, T/C [5] 29.4% | viability, T/C [6] 15.2% | viability, T/C [7] 73.7% | viability, T/C [8] 75.3% | viability, T/C [9] 29.7% | viability, T/C [10] 22.9% | viability, T/C [11] 16.3% | viability, T/C [12] 9.03% | viability, T/C [13] 16% | viability, T/C [14] 11.7%
0.891 µM: IC50 (second compound 0.0316 µM)
< 0.0316 µM: IC50 (second compound 0.316 µM) | IC50 (second compound 1 µM) | IC50 (second compound 3.16 µM) | IC50 (second compound 10 µM)
